# Like-named read-outs stand apart in the source and are kept apart here.
# How the values were obtained:
# [1] = in rats; Bioorganic & Medicinal Chemistry Letters 27(5), 2017, 1124-1128 (Compound 17 in the reference); cited from earlier work
# [2] = In vivo plasma levels in mice after oral gavage; set-up: species or system C57BL/6J mice; conditions: mouse, 30 mpk oral gavage; for Exposure unbound (plasma): total exposure x free fraction from plasma protein binding
# Protocol: Male C57BL/6J mice 10-12 weeks old were dosed with test article or vehicle [0.25% (w/v) methylcellulose, 5% (v/v) Polysorbate 80, and 0.02% (w/v) sodium lauryl sulfate in Hanks' Balanced Salt solution (all final concentrations)] by oral gavage at a volume of 10 mL/kg. Animals were euthanized with carbon dioxide 7-8 h post dose. Blood was collected for measurement of plasma concentrations of test article. Unbound exposure was calculated by multiplying the measured total exposure by the free fraction as assessed from plasma protein binding.
# Plasma protein binding to isotonic phosphate buffer (PBS) containing 10% C57 BL/6 mouse plasma was determined using equilibrium dialysis of plasma spiked with test article (2 μM) against a dialysis buffer (100 mM sodium phosphate and 150 mM NaCl). At the end of the dialysis (4 hr), aliquots of the plasma and buffer were processed by protein precipitation for LC-MS/MS analysis to quantitate the test article.
# [3] = biological target: T1, human GPR119 (hGPR119) (Homo sapiens, UniProt Q8TDV5); assay: cAMP accumulation assay (cAMP Gs dynamic HTRF kit); format: cell-based; conditions: CHO-K1 cells stably expressing hGPR119, 4-parameter fit; for Emax: 1 h, % activity normalized to Max/Min controls; for EC50: cAMP accumulation
# T1 construct: expressed in transfected cells
# T1 sequence (Q8TDV5 1-335): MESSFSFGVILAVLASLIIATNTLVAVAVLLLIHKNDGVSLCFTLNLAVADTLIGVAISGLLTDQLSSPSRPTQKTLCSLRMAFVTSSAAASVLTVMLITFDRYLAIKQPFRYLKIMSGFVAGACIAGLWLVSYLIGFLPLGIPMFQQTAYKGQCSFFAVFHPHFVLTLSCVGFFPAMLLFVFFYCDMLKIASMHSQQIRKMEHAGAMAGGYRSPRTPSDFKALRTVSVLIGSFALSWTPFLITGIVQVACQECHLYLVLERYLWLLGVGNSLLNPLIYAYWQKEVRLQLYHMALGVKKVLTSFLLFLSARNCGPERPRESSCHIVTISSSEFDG
# Method in brief: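 Read-out is HTRF 665/620 nm ratio after 1 h detection at ambient temperature, converted to % activity against positive and negative controls, EC50 and Max activity by 4-parameter fit. Compounds were titrated onto ~10,000 thawed hGPR119-CHO-K1 cells/well for 60 min at 37° C/5% CO2.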
# [4] = Oral bioavailability in mice; conditions: mouse, in vivo; C57BL/6 mice; IV 1 mg/kg, PO 30 mg/kg
# Protocol: Compounds were dosed IV at 1 mg/kg as a formulation of 0.5 mg/mL in 5% DMSO+30% PEG400+65% water and PO at 30 mg/kg as a formulation of 6 mg/mL in 0.25% methylcellulose+5% Tween 80+0.02% SDS in water (Compound 42) or 0.5% methylcellulose+0.5% Tween 80 in water (Compound 83).
# [5] = In vivo plasma levels in mice after oral gavage; set-up: species or system C57BL/6J mice; conditions: mouse, 30 mpk oral gavage, 2 h post-dose; for concentration at 2 h: male, C57BL/6J, plasma, 30 mg/kg, read-out: Exposure Total (plasma)
# [6] = male, C57BL/6J, plasma, 30 mg/kg, 7 h post-dose, read-out: Exposure Total (plasma)
"concentration at 7 h [2, 6]",Exposure unbound (plasma) ([2]; 7 h post-dose),Emax [3],EC50 [3],concentration at 2 h [5],SMILES,further results
–,–,–,–,–,"COCc1cnc(N2CCC([C@H]3C[C@H]3CCOc3cc(F)c(CC(=O)N4CCC4)c(F)c3)CC2)nc1 [1-(azetidin-1-yl)-2-(2,6-difluoro-4-(2-((1S,2R)-2-(1-(5-(methoxymethyl)pyrimidin-2-yl)piperidin-4-yl)cyclopropyl)ethoxy)phenyl)ethan-1-one]",bioavailability [1]: 80%
668 nM,0.7 nM,≥ 130%,≤ 100 nM,–,"O=C(Cc1ccc(OCCCC2CCN(c3ncc(Cl)cn3)CC2)cc1F)N1CC(CNC(CO)(CO)CO)C1 [Example 44, 2-[4-[3-[1-(5-chloropyrimidin-2-yl)-4-piperidyl]propoxy]-2-fluoro-phenyl]-1-[3-[[[2-hydroxy-1,1-bis(hydroxymethyl)ethyl]amino]methyl]azetidin-1-yl]ethanone]",–
–,–,100 to 130%,100 to 1000 nM,806 nM,"O=C(Cc1ccc(OCCCC2CCN(c3ncc(Cl)cn3)CC2)cc1F)N1CC(CNC[C@H](O)[C@@H](O)[C@H](O)[C@H](O)CO)C1 [Example 42, 2-[4-[3-[1-(5-chloropyrimidin-2-yl)-4-piperidyl]propoxy]-2-fluoro-phenyl]-1-[3-[[[(2S,3R,4R,5R)-2,3,4,5,6-pentahydroxyhexyl]amino]methyl]azetidin-1-yl]ethanone]","concentration at 8 h ([2]; male, C57BL/6J, plasma, 30 mg/kg, 8 h post-dose, read-out: Exposure Total (plasma)): 369 nM; Exposure unbound (plasma) ([2]; 8 h post-dose): 1.1 nM; bioavailability [4]: 2.4%; Exposure unbound (plasma) ([5]; total exposure x free fraction from plasma protein binding): 2.4 nM"
–,–,–,–,16200 nM,"COc1c(Nc2ccc(S(C)(=O)=O)nc2C)ncnc1OC1CCN(C(=O)OC(C)C)CC1 [APD597, isopropyl 4-((5-methoxy-6-((2-methyl-6-(methylsulfonyl)pyridin-3-yl)amino)pyrimidin-4-yl)oxy)piperidine-1-carboxylate, reference compound]",–
76 nM,0.2 nM,≥ 130%,100 to 1000 nM,–,"O=C(CC1CN(C(=O)Cc2ccc(OCCCC3CCN(c4ncc(Cl)cn4)CC3)cc2F)C1)NC[C@H](O)[C@@H](O)[C@H](O)[C@H](O)CO (racemic) [Example 38, 2-[1-[2-[4-[3-[1-(5-chloropyrimidin-2-yl)-4-piperidyl]propoxy]-2-fluoro-phenyl]acetyl]azetidin-3-yl]-N-[rac-(2S,3R,4R,5R)-2,3,4,5,6-pentahydroxyhexyl]acetamide]",–
67 nM,0.1 nM,100 to 130%,100 to 1000 nM,–,"O=C(Cc1ccc(OCC[C@@H]2C[C@@H]2C2CCN(c3ncc(Cl)cn3)CC2)cc1F)N1CC(CNC[C@H](O)[C@@H](O)[C@H](O)[C@H](O)CO)C1 [Example 86, 2-[4-[2-[(1S,2R)-2-[1-(5-chloropyrimidin-2-yl)-4-piperidyl]cyclopropyl]ethoxy]-2-fluoro-phenyl]-1-[3-[[[(2S,3R,4R,5R)-2,3,4,5,6-pentahydroxyhexyl]amino]methyl]azetidin-1-yl]ethanone]",–
354 nM,0.7 nM,≥ 130%,≤ 100 nM,–,"O=C(NC(CO)(CO)CO)C1CN(C(=O)Cc2ccc(OCCCC3CCN(c4ncc(Cl)cn4)CC3)cc2F)C1 [Example 29, 1-[2-[4-[3-[1-(5-chloropyrimidin-2-yl)-4-piperidyl]propoxy]-2-fluoro-phenyl]acetyl]-N-[2-hydroxy-1,1-bis(hydroxymethyl)ethyl]azetidine-3-carboxamide]",–
551 nM,1.1 nM,100 to 130%,100 to 1000 nM,–,"O=C(NC[C@H](O)[C@@H](O)[C@H](O)[C@H](O)CO)C1CN(C(=O)Cc2ccc(OCCCC3CCN(c4ncc(Cl)cn4)CC3)cc2F)C1 (racemic) [Example 37, 1-[2-[4-[3-[1-(5-chloropyrimidin-2-yl)-4-piperidyl]propoxy]-2-fluoro-phenyl]acetyl]-N-[rac-(2S,3R,4R,5R)-2,3,4,5,6-pentahydroxyhexyl]azetidine-3-carboxamide]",–
–,–,100 to 130%,100 to 1000 nM,–,"COCc1cnc(N2CCC(CCCOc3ccc(CC(=O)N4CC(CNC[C@H](O)[C@@H](O)[C@H](O)[C@H](O)CO)C4)c(F)c3)CC2)nc1 [Example 83, 2-[2-fluoro-4-[3-[1-[5-(methoxymethyl)pyrimidin-2-yl]-4-piperidyl]propoxy]phenyl]-1-[3-[[[(2S,3R,4R,5R)-2,3,4,5,6-pentahydroxyhexyl]amino]methyl]azetidin-1-yl]ethanone]",bioavailability [4]: 1.4%
–,–,–,–,7840 nM,"CC(C)c1noc(N2CCC(COc3ccc(-c4ccc(S(C)(=O)=O)cc4)nc3)CC2)n1 [GSK1292263, 3-isopropyl-5-(4-(((6-(4-(methylsulfonyl)phenyl)pyridin-3-yl)oxy)methyl)piperidin-1-yl)-l,2,4-oxadiazole, reference compound]",–
